Data from patent US7112333B1, “T cell epitopes of ryegrass pollen allergen” (Heska Corporation, priority 1994, dated 2006).

Tested on: Lol p V reactive T Cells
Experiment: T cell proliferation (tritiated thymidine) of Lol p V-primed T cell lines from grass-allergic patients
Format: cell-based, human
From the text: As discussed in Example 2, human T cell stimulating activity can be tested by culturing T cells obtained from an individual sensitive to Lol p V allergen, (i.e., an individual who has an IgE mediated immune response to Lol p V allergen) with a peptide derived from the allergen and determining whether proliferation of T cells occurs in response to the peptide as measured, e.g., by cellular uptake of tritiated thymidine. Stimulation indices for responses by T cells to peptides can be calculated as the maximum CPM in response to a peptide divided by the control CPM. A stimulation index (S.I.) equal to or greater than two times the background level is considered “positive”. Positive results are used to calculate the mean stimulation index for each peptide for the group of patients tested. In FIGS. 4 and 5 the mean T cell stimulation index is indicated above the bar. Preferred peptides of this invention comprise at least one T cell epitope and have a mean T cell stimulation index of greater than or equal to 2.0. […]
In addition, preferred peptides have a positivity index (P.I.) of at least about 60, more preferably about 100, more preferably at least about 200 and most preferably at least about 300. The positivity index for a peptide is determined by multiplying the mean T cell stimulation index by the percent of individuals, in a population of individuals sensitive to ryegrass pollen (e.g., preferably a population of at least 15 individuals, more preferably a population of at least 30 individuals or more), who have a T cell stimulation index to such peptide of at least 2.0. […]
In FIG. 5, the bar represents the cumulative rank of the peptide response in the group of patients tested as described in Example 2. To determine the cumulative rank, the 5 peptides with the highest S.I. in each individual were determined and assigned a numerical rank in descending order, with 5 representing the strongest response. […]
This amount of priming antigen was determined to be optimal for the activation of T cells from most grass-allergic patients. […]

LPIX-5: synthetic overlapping peptide derived from Lol p V, sequence in FIG. 2 (GFKAAVAAAANAPPADKFKI; Lolium perenne)
percent of positive responses (patients with S.I. of at least 2) (group of 19 patients tested, FIG. 4): 26.3%

LPIX-20: synthetic overlapping peptide derived from Lol p V, sequence in FIG. 2 (AYETYKFIPSLEAAVKQAYA; Lolium perenne)
ranked sum (cumulative rank of the peptide response) (19 patients, 5 peptides with highest S.I. per individual ranked, ranks summed, FIG. 5): highest ranked sum

rFel d I (Chain I): recombinant Fel d I chain I, control antigen in T cell assay [reference compound]
T cell proliferative response of one patient (one allergic patient, results not shown): not
